Source: patent US7767682B2, “Medicaments” (GlaxoSmithKline LLC, priority 2005, dated 2010)
“Also recorded” adds a separate entry of the source. Counter-ions that a name gives are not always drawn. Bridge positions count the residues as written; N and C are the ends. Ends that are not written are not given here.

Assays:
MDCK-C7 cells [1] = experiment: Short-circuit current (SCC) ion transport response to ADH in MDCK-C7 monolayers in Ussing chambers; type: cell-based, canine; conditions: for initial rapid transient SCC response to ADH: 18 hrs pre-incubation before ADH
Procedure: The Madin-Darby canine kidney (MDCK) cell line expresses many characteristics of the renal collecting duct. The MDCK-C7 subclone forms a high-resistance, hormone-responsive model of the principal cells, which are found in distal sections of the renal tubule. The electrophysiological technique of short-circuit current measurement has been used to examine the response to antidiuretic hormone (ADH) in the MDCK-C7 clone.
The MDCK-C7cells were grown in a 37° C. humidified incubator with a 5% CO2 and […] gas mixture. Initially the cells were grown in 75 cm^2 flasks and fed with Minimal Media with Earle's salts, non-essential amino acids and L-glutamine (MEM; Gibco/BRL, Grand Island, N.Y., USA) supplemented with 10% fetal bovine serum (Sigma), 26 mM NaHCO3 and adjusted to pH 7.0. The confluent cells were subcultured by trypsinization and the cells were seeded (5.4×10^4 cell/cm^2) onto Nucleopore polycarbonate membranes forming the bottom of Transwell chambers (Costar, Cambridge, Mass., USA). The Transwell chambers were placed in specially designed tissue culture plates to form a two compartment system in which media are added to both apical and basolateral surfaces. The media were aspirated and replaced three times per week. The cells were used between passages 73 and 96.
Nucleopore filters (4.7 cm^2) containing confluent MDCK-C7 cells (10-16 days) were removed from the Transwell chambers and clamped between the halves of an Ussing chamber (World Precision Instruments, Sarasota, Fla.). Each half of the chamber contained a tapered fluid compartment with openings for voltage electrodes (close to the epithelial membrane) and current electrodes (at the opposite end of the chamber). The fluid chamber was water jacketed to maintain constant temperature (37° C.). The cells were bathed in serum-free MEM. The media were circulated in the chambers by means of a 5%CO2/O2 gas lift. […] Transepithelial resistance was calculated by applying a 2-mV pulse across the epithelium and measuring the resultant deflection in SCC. Data from cultures were used only if they maintained a resistance >1000 W cm^2. Transepithelial resistance (an indication of cellular viability) was monitored throughout the entire duration of each electrophysiological experiment by pulsing the tissues with a 2000 μV pulse every 200 seconds. Resistance values were calculated from the resulting current deflections using Ohm's law.
The cultures were placed in the Ussing chambers and incubated under short-circuited conditions until a steady baseline transport was achieved (0.5-1 h). In the experiments to characterize the ADH-induced ion transport phenomena, the cultures were pre-incubated with the inhibitors 30 minutes prior to the addition of ADH. In the experiments with GI262570X, compound was added 18 hrs. prior to the addition of ADH. ADH was added to the serosal bathing media; amiloride was added to the apical media 30 min after ADH to determine the portion of the transport due to flux through the amiloride-sensitive Na^+ channel. The concentrations of effectors used were: ADH, 0.1 IU/ml; amiloride, 30 μM; NPPB, 500 μM; verapamil, 25 μM, and GI262570X (concentration range from 1 nM -1 μM). Each experiment was performed using matched cultures grown in parallel. The data are presented as means±SE with n indicating the number of different experiments.

MDCK-C7 cells [2] = experiment: Transepithelial resistance of MDCK-C7 monolayers (indication of cellular viability); type: cell-based, canine; conditions: at concentrations >10 μM; SCC response not measurable
Procedure: Nucleopore filters (4.7 cm^2) containing confluent MDCK-C7 cells (10-16 days) were removed from the Transwell chambers and clamped between the halves of an Ussing chamber (World Precision Instruments, Sarasota, Fla.). Each half of the chamber contained a tapered fluid compartment with openings for voltage electrodes (close to the epithelial membrane) and current electrodes (at the opposite end of the chamber). The fluid chamber was water jacketed to maintain constant temperature (37° C.). The cells were bathed in serum-free MEM. The media were circulated in the chambers by means of a 5%CO2/O2 gas lift. The electrodes were connected to a voltage-clamp amplifier (Current Voltage Clamp; World Precision Instruments) for measurement of net ion flux as monitored under short-circuit conditions (SCC; short circuit current) [Ussing, 1951]. Transepithelial resistance was calculated by applying a 2-mV pulse across the epithelium and measuring the resultant deflection in SCC. Data from cultures were used only if they maintained a resistance >1000 W cm^2. Transepithelial resistance (an indication of cellular viability) was monitored throughout the entire duration of each electrophysiological experiment by pulsing the tissues with a 2000 μV pulse every 200 seconds. Resistance values were calculated from the resulting current deflections using Ohm's law.

## Cc1oc(-c2ccccc2)nc1CCOc1ccc(C[C@H](Nc2ccccc2C(=O)c2ccccc2)C(=O)O)cc1 [GI262570X, N-(2-benzoylphenyl)-O-[2-(5-methyl-2-phenyl-4-oxazolyl)ethyl]-L -tyrosine]
MDCK-C7 cells [1]; 100 nM or 1 μM, 18 hrs pre-incubation
  effects on the other phases of the SCC response to ADH: no significant effects
MDCK-C7 cells [1]; 100 nM, n=4, p<0.05 vs controls
  initial rapid transient SCC response to ADH: significantly attenuated
MDCK-C7 cells [1]; 1 μM, n=4, p<0.01 vs controls
  initial rapid transient SCC response to ADH: significantly attenuated
MDCK-C7 cells [1]; -10 to 0 minutes, before ADH, 18 hrs pre-incubation
  effect on baseline SCC: no compound-related effect
MDCK-C7 cells [1]; MDCK-C7 cells, summary statement
  CFTR-mediated anion secretion in response to ADH stimulation: decreased
MDCK-C7 cells [1]; over the concentration range of 1 nM - 1 μM
  initial rapid transient response to ADH: inhibited
MDCK-C7 cells [2]
  cellular resistance of the monolayers: < 500 ohm cm^2

## O=C(O)c1cc([N+](=O)[O-])ccc1NCCCc1ccccc1 [NPPB, reference compound]
MDCK-C7 cells [1]; 500 μM, added to apical bathing medium, 30 minutes before ADH
  rapid transient ion transport response to ADH: significantly diminish

## N=C(N)NC(=O)c1nc(Cl)c(N)nc1N [amiloride, amiloride hydrochloride, reference compound]
MDCK-C7 cells [1]; amiloride 30 μM, apical media, hydrochloride
  later sustained SCC (ion transport) response to ADH: only blocks the later sustained SCC response; also recorded: decrease

## [arg]-vasopressin (CYFQNCPRG-NH2; disulfide 1-6; UniProt P01185 20-28, looked up) [ADH, antidiuretic hormone used to stimulate ion transport, reference compound]
MDCK-C7 cells [1]; 100 mU/ml, serosal bathing media, multiphasic response
  short circuit current response on stimulation: rapid increase in short circuit current
